Target: KCNQ2-W236L/KCNQ3-W265L (Homo sapiens, UniProt O43525+O43526, W236L/W265L)
Assay: TEVC of double-mutant WL/WL KCNQ2/3 channels
Type: cell-based
From the text: cRNA transcripts encoding human KCNA1, KCNQ1, KCNQ2, KCNQ3, KCNQ4, or KCNQ5 were generated by in vitro transcription using the T7 polymerase message machine kit (Thermo Fisher Scientific), after vector linearization, from cDNA sub-cloned into plasmids incorporating X. laevis β-globin 5′ and 3′ UTRs flanking the coding region to enhance translation and cRNA stability. cRNA was quantified by spectrophotometry. Mutant cDNAs were generated by site-directed mutagenesis using a QuikChange kit according to manufacturer's protocol (Stratagene, San Diego, Calif.) and corresponding cRNAs prepared as above. Defolliculated stage V and VI X. laevis oocytes (Ecocyte Bioscience, Austin, Tex.) were injected with Kv channel a subunit cRNAs (10 ng total per oocyte). Oocytes were incubated at 16° C. in Barth's saline solution (Ecocyte) containing penicillin and streptomycin, with daily washing, for 3-5 days prior to two-electrode voltage-clamp (TEVC) recording.
TEVC recording was performed at room temperature with an OC-725C amplifier (Warner Instruments, Hamden, Conn.) and pClamp10.2 software (Molecular Devices, Sunnyvale, Calif.) 3-5 days after cRNA injection as described in the section above. Oocytes were placed in a small-volume oocyte bath (Warner) and viewed with a dissection microscope. Chemicals were sourced from Sigma. Bath solution was (in mM): 96 NaCl, 4 KCl, 1 MgCl2, 1 CaCl2. 10 HEPES (pH 7.6). […] Currents were recorded in response to pulses between −80 and +40 mV at 20 mV intervals, or a single pulse to +40 mV, from a holding potential of −80 mV, to yield current-voltage relationships, current magnitude, and for quantifying activation rate. […]
cRNA transcripts encoding human KCNQ2, KCNQ3, KCNQ4, KCNQ5 (Kv7.2-Kv7.5) were generated by in vitro transcription using the T7 polymerase mMessage mMachine kit (Thermo Fisher Scientific), after vector linearization, from cDNA sub-cloned into plasmids incorporating Xenopus laevis β-globin 5′ and 3′ UTRs flanking the coding region to enhance translation and cRNA stability. cRNA was quantified by spectrophotometry. […]

SMILES	reduction of MTX potency (negative shift in voltage dependence) by W/L mutation (KCNQ2-W236L or KCNQ3-W265L, or both)	augmentation of WL/WL KCNQ2/3 current [%]
CC(=O)c1c(O)c(C)c(O)c(Cc2c(O)c3c(c(C(=O)/C=C/c4ccccc4)c2O)OC(C)(C)C=C3)c1O [MTX, mallotoxin]	tenfold	
NCC1(CC(=O)O)CCCCC1 [gabapentin, reference compound]		≤ 50

Source: patent US12268683B2, “Compounds and methods for synergistic activation of M channels” (THE REGENTS OF THE UNIVERSITY OF CALIFORNIA, priority 2018, dated 2025)
